The target in series [1] is T1, Kelch domain (321-609) of Keap1 / TAMRA-labeled NRF2 ETGE peptide (Homo sapiens, UniProt Q14145).
T1 construct: the Kelch domain (321-609) of Keap1 is used
The series can be described thus: NRF2-Keap1 FP assay (Keap1 Kelch fluorescence polarization). It is filed as binding. The following applies: Keap1 (321-609) 20 nM, Tamra labelled peptide 8 nM. From the text: NRF2-Keap1 FP Assay One model for the NRF2-Keap1 interaction is through two binding sites in the Neh2 domain on NRF2. The two sites are referred to as the DLG binding motif (latch domain, uM affinity) and the ETGE binding motif (hinge domain, nM affinity). The Keap1 protein consists of an N-terminal region (NTR), a broad complex, tramtrack, and brick a brac domain (BTB), an intervening region (IVR), a double glycine repeat domain (DGR or Kelch), and a C-terminal region. The DLG and ETGE motifs of NRF2's Neh2 domain bind to the Kelch domain of Keap1 at different affinities. In the Keap1 Kelch fluorescence polarization (FP) assay, a TAMRA-labeled 16 mer peptide (AFFAQLQLDEETGEFL) containing the ETGE motif of NRF2 and the Kelch domain (321-609) of Keap1 is used. The assay determines if a compound interferes with the binding between Keap1 […] and the TAMRA-labeled peptide. Binding of TAMRA-labeled NRF2 peptide to Keap1 (321-609) results in a high FP signal. If a compound interferes with the binding between the peptide and the protein, it will cause the assay signal to decrease. Thus, assay signal is inversely proportional to binding inhibition. FP Assay:
100 nl of 100× compound dose response curves (serial 3-fold dilutions) in DMSO are stamped using an Echo liquid handling system (Labcyte) into 384-well low volume black assay plates (Greiner, #784076), with DMSO in columns 6 and 18. […] The plates are spun at 500 rpm for 1 min, incubated for 1 hr at room temperature, and read on an Analyst GT (Molecular Devices) equipped with excitation (530/25 nm) and emission (580/10 nm) filters designed for Tamra probes. […] Fluorescence measurements, represented as mP, are used in the transformation of the data. Compound activity is calculated based on percent inhibition, normalized against controls in the assay (Control 1 contains the Tamra peptide and Keap1 (321-609) together (0% response) and control 2 contains the Tamra peptide alone (100% response)). Data analysis is handled using the software package Abase XE (Surrey, United Kingdom. The % inhibition values are calculated by the equation: […]

In series [2] the target is T2, full length Keap1 protein / full length NRF2 protein (Homo sapiens, UniProt Q14145).
T2 construct: full length NRF2 protein and full length Keap1 protein (Keap1 exists a dimer) are used
The series can be described thus: NRF2-Keap1 TR-FRET assay. The class given is binding. As to conditions: full length Keap1-FlagHis and biotin-NRF2. From the text:
In the NRF2-Keap1 TR-FRET (time-resolved fluorescence resonance energy transfer) assay, full length NRF2 protein and full length Keap1 protein (Keap1 exists a dimer) are used. The assay detects the ability of compound to displace the binding of FlagHis-tagged Keap1 with biotinylated, Avi-tagged NRF2 protein. Biotin-NRF2 binds to streptavidin-europium (a component of the detection mix) and Keap1-FlagHis is recognized by anti-Flag APC (allophycocyanin) antibody (also a component of the detection mix). If binding occurs between the two proteins, there will be an energy transfer from the Eu+3 (donor) at 615 nm to the APC (acceptor) at 665 nm. A potential Keap1 inhibitor will cause a reduction in the TR-FRET signal by interfering with the binding of Keap1 to NRF2.
One hundred nanoliters of 100× compound dose response curves (serial 3-fold dilutions) in DMSO are stamped using an Echo liquid handling system (Labcyte) into 384-well, low volume, black assay plates (Greiner, #784076), with DMSO in columns 6 and 18. The top concentration of compound is located in columns 1 and 13. All reagents are diluted in assay buffer (50 mM Tris, pH 8.0, 5 mM MgCl2, 100 mM NaCl, 0.005% BSA, 1 mM DTT, and 2 mM CHAPS). The BSA, DTT, and CHAPS are added to the assay buffer on the day of assay. […] Plates are spun at 500 rpm for 1 minute, incubated for 1 hour at RT, and read on an Envision plate reader using a 320 nm excitation filter and 615 nm and 665 nm emission filters. Compound response (% inhibition) and potency (pIC50) are calculated based on the ratio of the two emissions (665 nm/615 nm) and then the transformed data is normalized against controls in the assay (control 1=1% DMSO in the presence of NRF2 and Keap1 protein and control 2=1% DMSO in the absence of protein). […] The % inhibition values are calculated from the ratio (transformed) data by the equation: 100−(100*(compound response−average control 2)/(average control 1−average control2)). […]

Series [3] concerns NQO1 specific activity induction (marker for NRF2 activation) in BEAS-2B cells. The series can be described thus: BEAS-2B NQO1 MTT assay. The class given is cell-based. The following applies: Homo sapiens, 48 hours with compound. From the text: NAD(P)H:quinone oxidoreductase 1 (NQO1), also called DT diaphorase, is a homodimeric FAD-containing enzyme that catalyzes obligatory NAD(P)H-dependent two-electron reductions of quinones and protects cells against the toxic and neoplastic effects of free radicals and reactive oxygen species arising from one-electron reductions. The transcription of NQO1 is finely regulated by NRF2, and thus NQO1 activity is a good marker for NRF2 activation. On day one, frozen BEAS-2B cells (ATCC) are thawed in a water bath, counted, and re-suspended at a concentration of 250,000 cells/mL. Fifty microliters of cells are plated in 384 well black clear-bottomed plates. Plates are incubated at 37° C., 5% CO2 overnight. On day two, plates are centrifuged and 50 nL of compound or controls are added to the cells. Plates are then incubated at 37° C., 5% CO2 for 48 hours. On day four, medium is aspirated from the plate and crude cell lysates are made by adding 13 uL of 1× Cell Signaling Technologies lysis buffer with 1 Complete, Mini, EDTA-free Protease Inhibitor Tablet (Roche) for each 10 mL of lysis buffer. After lysis plates are incubated for 20 minutes at room temperature. Two microliters of lysate are removed for use in Cell Titer Glo assay (Promega) and MTT cocktail is prepared (Prochaska et. al. 1998) for measurement of NQO1 activity. Fifty microliters of MTT cocktail is added to each well, plate is centrifuged, and analyzed on an Envision plate reader (Perkin Elmer) using Absorbance 570 nm label for 30 minutes. Product formation is measured kinetically and the EC50 of NQO1 specific activity induction is calculated by plotting the change in absorbance (Delta OD/min) versus the log of compound concentration followed by 3-parameter fitting.
Background: Tetrazolium assays rely on reduction of a dye to a coloured formazan, in cell work by metabolically active cells.

The nature of series [4]: Rat PK. It is filed as in vivo. As to conditions: oral bioavailability.
Series [5] can be described thus: Dog PK study. As to conditions: for Dog PK Fpo: male beagle dogs, nominal 1 mg/kg, oral gavage solution vs 60-minute intravenous infusion, cassette, non-crossover. It is filed as in vivo. The procedure:
One hundred nanoliters of 100× compound dose response curves (serial 3-fold dilutions) in DMSO are stamped using an Echo liquid handling system (Labcyte) into 384-well, low volume, black assay plates (Greiner, #784076), with DMSO in columns 6 and 18. The top concentration of compound is located in columns 1 and 13. All reagents are diluted in assay buffer (50 mM Tris, pH 8.0, 5 mM MgCl2, 100 mM NaCl, 0.005% BSA, 1 mM DTT, and 2 mM CHAPS). The BSA, DTT, and CHAPS are added to the assay buffer on the day of assay. Using a Multidrop Combi (Thermo Electron Corporation) equipped with a metal tip dispenser, 5 ul of 25 nM Keap1-FlagHis protein is added to all wells of the compound plate, with the exception of the wells in column 18. Wells in column 18 receive 5 ul of assay buffer instead. Plates are centrifuged at 500 rpm for 1 minute, covered with a plate lid, and incubated at 37° C. for 2.25 hours. Plates are then removed from the incubator and allowed to cool to RT for 15 minutes. Five microliters of 50 nM biotin-NRF2 protein is then added to all wells of the plates and the plates are spun at 500 rpm for 1 minute, followed by incubating at 4° C. for 1.25 hours. The plates are then allowed to warm to RT for 15 minutes, followed by the addition of 10 ul of detection mix (1 nM Streptavidin Eu+ W1024 and 5 ug/ml mouse anti-DYKDDDDK IgG conjugated to SureLight APC antibody; both from Columbia Biosciences) to all wells. Plates are spun at 500 rpm for 1 minute, incubated for 1 hour at RT, and read on an Envision plate reader using a 320 nm excitation filter and 615 nm and 665 nm emission filters. Compound response (% inhibition) and potency (pIC50) are calculated based on the ratio of the two emissions (665 nm/615 nm) and then the transformed data is normalized against controls in the assay (control 1=1% DMSO in the presence of NRF2 and Keap1 protein and control 2=1% DMSO in the absence of protein). Data analysis is handled using the software package Abase XE (Surrey, United Kingdom). The % inhibition values are calculated from the ratio (transformed) data by the equation: 100−(100*(compound response−average control 2)/(average control 1−average control2)). For calculation of pIC50s, Abase XE uses a four parameter equation. Dog PK Study
All studies were conducted after review by the GSK Institutional Animal Care and Use Committee and in accordance with the GSK Policy on the Care, Welfare and Treatment of Laboratory Animals. A pre-study health examination that included a physical exam and complete blood count was performed on the animals prior to use on study. A catheter was temporarily placed in a cephalic or saphenous vein for sample collection on the study day. The animals were fasted overnight prior to dosing; food provided after the 4-hour blood sample was collected. The intravenous and oral solution pharmacokinetic studies were carried out using a non-crossover design; a total of four male beagle dogs were used, two per route of administration.
The dose for intravenous administration was prepared as a cassette of up to five test compounds in 20% Cavitron™ and 5% DMSO. The intravenous dose formulation was filtered through a 0.22-micron polytetrafluoroethylene (PTFE) filter prior to administration. The dose for oral solution administration was prepared as a cassette of up to five compounds in 6% Cavitron™ and 5% DMSO and was filtered through a 0.22 micron VWR PTFE filter prior to administration. […]

SMILES strings stand for the structures.

T2 sequence (Q14145 whole entry): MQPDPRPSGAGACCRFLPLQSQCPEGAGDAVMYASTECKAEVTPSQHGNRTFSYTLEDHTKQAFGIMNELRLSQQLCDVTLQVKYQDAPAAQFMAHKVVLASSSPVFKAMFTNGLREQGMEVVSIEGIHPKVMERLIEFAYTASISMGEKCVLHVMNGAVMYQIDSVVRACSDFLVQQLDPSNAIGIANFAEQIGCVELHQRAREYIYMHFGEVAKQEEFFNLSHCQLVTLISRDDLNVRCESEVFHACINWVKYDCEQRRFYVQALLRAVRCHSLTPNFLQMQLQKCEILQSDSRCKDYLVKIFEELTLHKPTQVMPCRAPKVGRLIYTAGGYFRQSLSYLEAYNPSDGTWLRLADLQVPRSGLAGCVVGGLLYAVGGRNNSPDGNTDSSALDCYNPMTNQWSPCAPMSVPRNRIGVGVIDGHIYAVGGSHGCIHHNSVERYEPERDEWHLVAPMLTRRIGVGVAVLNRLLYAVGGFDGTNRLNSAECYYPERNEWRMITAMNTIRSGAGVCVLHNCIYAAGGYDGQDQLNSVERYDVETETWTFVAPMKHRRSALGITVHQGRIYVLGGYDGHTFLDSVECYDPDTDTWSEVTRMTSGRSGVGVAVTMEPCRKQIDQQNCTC
T1 sequence (Q14145 321-609): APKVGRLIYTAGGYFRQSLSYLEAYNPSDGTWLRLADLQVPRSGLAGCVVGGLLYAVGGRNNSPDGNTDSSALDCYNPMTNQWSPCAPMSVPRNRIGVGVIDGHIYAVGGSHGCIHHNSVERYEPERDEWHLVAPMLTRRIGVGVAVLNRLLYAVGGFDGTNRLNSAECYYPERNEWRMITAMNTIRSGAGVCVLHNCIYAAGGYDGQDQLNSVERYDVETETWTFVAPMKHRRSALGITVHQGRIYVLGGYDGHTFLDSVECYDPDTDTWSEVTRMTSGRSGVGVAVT

By IC50 is commonly meant the concentration that inhibits the measured activity by half. Lower therefore signals higher potency. In general, EC50 refers to the concentration giving half of the maximal effect. Take `CC[C@@H]1CN(Cc2cc(C(CC(=O)O)c3ccc4c(nnn4C)c3C)ccc2C)Cc2ncccc2O1` (mixture of isomers) [Beta-stereocenter 50/50 mixture, 3-(1,4-Dimethyl-1H-benzo[d][1,2,3]triazol-5-yl)-3-(3-(((R)-2-ethyl-2,3-dihydropyrido[2,3-t][1,4]oxazepin-4(5H)-yl)methyl)-4-methylphenyl)propanoic acid]: the figures for the IC50 in series [1] and in series [2] were 63 nM and 25 nM, respectively. For the same compound, in series [3], the EC50 came out at 20 nM. Also, the “Rat PK Fpo” value in series [4] amounted to 177%.

`CC[C@@H]1CN(Cc2cc([C@@H](CC(=O)O)c3ccc4c(nnn4C)c3C)ccc2C)Cc2ncccc2O1` [Formula (I) R-beta-stereocenter isomer, (R)-3-(1,4-dimethyl-1H-benzo[d][1,2,3]triazol-5-yl)-3-(3-(((R)-2-ethyl-2,3-dihydropyrido[2,3-f][1,4]oxazepin-4(5H)-yl)methyl)-4-methylphenyl)propanoic acid]: the IC50 in series [1] was 40 nM; in series [2], 16 nM. Moreover, the EC50 in series [3] worked out at 20 nM. In addition, in series [4], the “Rat PK Fpo” value was 129%. For the same compound, the “difference in the dog oral bioavailability” value in series [5] (compound of the invention versus the S-isomer, dog) was about 5 fold. Also, the “Dog PK Fpo” value in series [5] and in series [5] (listed as compound of the invention) was 52% in each case.

On to `CC[C@@H]1CN(Cc2cc([C@H](CC(=O)O)c3ccc4c(nnn4C)c3C)ccc2C)Cc2ncccc2O1` [S-beta-stereocenter isomer, (S)-3-(1,4-dimethyl-1H-benzo[d][1,2,3]triazol-5-yl)-3-(3-(((R)-2-ethyl-2,3-dihydropyrido[2,3-f][1,4]oxazepin-4(5H)-yl)methyl)-4-methylphenyl)propanoic acid], for which the figures for the half-inhibitory concentration (IC50) in series [1] and in series [2] were 50 nM and 12 nM, respectively. Besides, the concentration giving a half-maximal response (EC50) in series [3] was 16 nM. Moreover, the “Rat PK Fpo” value in series [4] is reported as 78%. For the same compound, the “Dog PK Fpo” value in series [5] and in series [5] (listed as S-isomer) was 11% each time.

The values are drawn from patent US11028099B2, “NRF2 activators” (GLAXOSMITHKLINE INTELLECTUAL PROPERTY DEVELOPMENT LIMITED, priority 2016, dated 2021).
